Laboratory results reported in ChEMBL document CHEMBL1240532, “Spiroindolones, a potent compound class for the treatment of malaria” (Science, 2010).
Active and inactive are the calls of the source. The rule behind the calls is not given here.

Tests used:
[1] = test system: Plasmodium falciparum; assay: Antimalarial activity against Plasmodium falciparum NF54 after 48 hrs incubation by [3H]hypoxanthin incorporation assay
[2] = test system: Plasmodium falciparum; assay: Inhibition of protein synthesis in NITD609-resistant Plasmodium falciparum Dd2 Clone1 within 1 hrs by [35S]Met/Cys incorporation assay; assay type: functional
[3] = test system: Plasmodium berghei; assay: Antimalarial activity against Plasmodium berghei GFP ANKA infected in NMRI mice (Mus musculus) assessed as survival at 100 mg/kg, perorally administered as single dose 24 hrs post infection for 1 day measured 72 hrs post infection; assay type: functional; settings: route oral
[4] = test system: Plasmodium falciparum; assay: Antimalarial activity against pyrimethamine-resistant Plasmodium falciparum 7G8 after 48 hrs incubation by [3H]hypoxanthine incorporation assay
[5] = target: Melanocortin receptor 4 (Homo sapiens, UniProt P32245); assay: Binding affinity to human recombinant melanocortin MC4 receptor
[6] = test system: Plasmodium falciparum; assay: Antimalarial activity against Plasmodium falciparum 3D7 after 48 hrs incubation by [3H]hypoxanthin incorporation assay
[7] = test system: Plasmodium berghei; assay: Antimalarial activity against Plasmodium berghei GFP ANKA infected in NMRI mice (Mus musculus) assessed as cure rate at 30 mg/kg, perorally administered as single dose 24 hrs post infection for 1 day measured 30 days post infection; assay type: functional; settings: route oral
[8] = in vivo; settings: CD1, mouse, iv, 5.4 mg/kg
[9] = Tmax in Wistar rat at 23.7 mg/kg, po; assay type: ADME, organism-based; set-up: dose 23.7 mg/kg, route oral; settings: in vivo
[10] = test system: Plasmodium falciparum; assay: Antimalarial activity against Plasmodium falciparum 3D7 assessed as parasite growth inhibition at 1.6 nM after24 hrs by [3H]hypoxanthin incorporation assay; assay type: functional
[11] = test system: Plasmodium falciparum; assay: Antimalarial activity against Plasmodium falciparum isolates after 42 hrs; assay type: functional, organism-based
[12] = target: 5-hydroxytryptamine receptor 2C (Homo sapiens, UniProt P28335); assay: Binding affinity to human recombinant serotonin 5HT2C receptor
[13] = Intrinsic clearance in human liver microsome; assay type: ADME; settings: liver microsomes
[14] = test system: Plasmodium berghei; assay: Antimalarial activity against Plasmodium berghei GFP ANKA infected in NMRI mice (Mus musculus) assessed as survival at 10 mg/kg, perorally administered as single dose as single dose 24 hrs post infection for 1 day measured 72 hrs post infection; assay type: functional; settings: route oral
[15] = test system: Plasmodium falciparum; assay: microbe, parasite or virus in culture; settings: Dd2, 72 h
[16] = target: Kappa-type opioid receptor (Homo sapiens, UniProt P41145); assay: Binding affinity to human recombinant opiate kappa receptor
[17] = target: Histamine H1 receptor (Homo sapiens, UniProt P35367); assay: Binding affinity to human recombinant histamine H1 receptor
[18] = target: Melanocortin receptor 3 (Homo sapiens, UniProt P41968); assay: Binding affinity to human recombinant melanocortin MC3 receptor
[19] = Volume of distribution at steady state in Wistar rat at 5 mg/kg, iv; assay type: ADME, organism-based; set-up: dose 5 mg/kg, route intravenous; settings: in vivo, read-out: Vdss
[20] = target: D(4) dopamine receptor (Homo sapiens, UniProt P21917); assay: Binding affinity to human recombinant dopamine D4.4 receptor
[21] = target: hERG (KCNH2) (Homo sapiens, UniProt Q12809); assay: Inhibition of human ERG at 30 uM by patch clamp method
[22] = target: Estrogen receptor (Homo sapiens, UniProt P03372); assay: Binding affinity to human recombinant ERalpha
[23] = test system: Plasmodium falciparum; assay: microbe, parasite or virus in culture; settings: Dd2, 72 h; remark: listed apart in the source
[24] = test system: Plasmodium berghei; assay: Antimalarial activity against Plasmodium berghei GFP ANKA infected in NMRI mice (Mus musculus) assessed as survival at 50 mg/kg, perorally administered through 0.5% MCM/0.1%solutol HS15 formulation 24 hrs post infection for 3 days measured 96 hrs post infection; assay type: functional; settings: route oral
[25] = test system: Plasmodium berghei; assay: Antimalarial activity against Plasmodium berghei GFP ANKA infected in NMRI mice (Mus musculus) assessed as survival at 30 mg/kg, perorally administered through 0.5% MCM/0.1%solutol HS15 formulation 24 hrs post infection for 3 days measured 96 hrs post infection; assay type: functional; settings: route oral
[26] = Intrinsic clearance in mouse liver microsome; assay type: ADME; settings: liver microsomes
[27] = test system: Plasmodium falciparum; assay: Antimalarial activity against Plasmodium falciparum Dd2 after 72 hrs by SYBR green based fluorescence assay; assay type: functional, organism-based; settings: Dd2, 72 h
[28] = test system: Plasmodium berghei; assay: Antimalarial activity against Plasmodium berghei GFP ANKA infected in NMRI mice (Mus musculus) assessed as reduction in parasitaemia at 10 mg/kg, perorally administered through 0.5% MCM/0.1%solutol HS15 formulation 24 hrs post infection for 3 days measured 96 hrs post infection; assay type: functional; set-up: scale not given: the % may be the effect or the level left; settings: route oral
[29] = Intrinsic clearance in monkey liver microsome; assay type: ADME, Macaca mulatta; settings: rhesus monkey, liver microsomes
[30] = test system: Plasmodium falciparum; assay: Inhibition of protein synthesis in NITD609-resistant Plasmodium falciparum Dd2 Clone3 within 1 hrs by [35S]Met/Cys incorporation assay; assay type: functional
[31] = target: Motilin receptor (Homo sapiens, UniProt O43193); assay: Binding affinity to human recombinant motilin receptor
[32] = target: 5-hydroxytryptamine receptor 3A (Homo sapiens, UniProt P46098); assay: Binding affinity to human recombinant serotonin 5HT3 receptor
[33] = target: Voltage-gated inwardly rectifying potassium channel KCNH2 (Homo sapiens, UniProt Q12809); assay: Inhibition of human ERG
[34] = Binding affinity to human recombinant nicotinic (CNS) receptor
[35] = target: Glucagon receptor (Homo sapiens, UniProt P47871); assay: Binding affinity to human recombinant glucagon receptor
[36] = target: Sodium-dependent serotonin transporter (Homo sapiens, UniProt P31645); assay: Binding affinity to human recombinant serotonin transporter
[37] = Intrinsic clearance in rat liver microsome; assay type: ADME; settings: liver microsomes
[38] = target: Cholecystokinin receptor type A (Homo sapiens, UniProt P32238); assay: Binding affinity to human recombinant cholecystokinin A receptor
[39] = target: Estrogen receptor beta (Homo sapiens, UniProt Q92731); assay: Binding affinity to human recombinant ERbeta
[40] = test system: Plasmodium berghei; assay: Antimalarial activity against Plasmodium berghei GFP ANKA infected in NMRI mice (Mus musculus) assessed as cure rate at 50 mg/kg, perorally administered through 0.5% MCM/0.1%solutol HS15 formulation 24 hrs post infection for 3 days measured on day 30 post infection; assay type: functional; settings: route oral
[41] = target: Alpha-1A adrenergic receptor (Homo sapiens, UniProt P35348); assay: Binding affinity to human recombinant alpha 1a receptor
[42] = Oral bioavailability in Wistar rat at 23.7 mg/kg; assay type: ADME, organism-based; settings: in vivo
[43] = target: Muscarinic acetylcholine receptor M2 (Homo sapiens, UniProt P08172); assay: Binding affinity to human recombinant muscarinic M2 receptor
[44] = target: Sodium-dependent dopamine transporter (Homo sapiens, UniProt Q01959); assay: Binding affinity to human recombinant dopamine transporter
[45] = Binding affinity to rat benzodiazepine receptor
[46] = target: Prostaglandin G/H synthase 2 (Homo sapiens, UniProt P35354); assay: Binding affinity to human recombinant COX2
[47] = target: Sodium-dependent noradrenaline transporter (Homo sapiens, UniProt P23975); assay: Binding affinity to human recombinant norepinephrine transporter
[48] = target: Beta-3 adrenergic receptor (Homo sapiens, UniProt P13945); assay: Binding affinity to human recombinant adrenergic beta3 receptor
[49] = in vivo; settings: Wistar, rat, iv, 5 mg/kg

Sodium-dependent serotonin transporter, sequence (P31645 whole entry): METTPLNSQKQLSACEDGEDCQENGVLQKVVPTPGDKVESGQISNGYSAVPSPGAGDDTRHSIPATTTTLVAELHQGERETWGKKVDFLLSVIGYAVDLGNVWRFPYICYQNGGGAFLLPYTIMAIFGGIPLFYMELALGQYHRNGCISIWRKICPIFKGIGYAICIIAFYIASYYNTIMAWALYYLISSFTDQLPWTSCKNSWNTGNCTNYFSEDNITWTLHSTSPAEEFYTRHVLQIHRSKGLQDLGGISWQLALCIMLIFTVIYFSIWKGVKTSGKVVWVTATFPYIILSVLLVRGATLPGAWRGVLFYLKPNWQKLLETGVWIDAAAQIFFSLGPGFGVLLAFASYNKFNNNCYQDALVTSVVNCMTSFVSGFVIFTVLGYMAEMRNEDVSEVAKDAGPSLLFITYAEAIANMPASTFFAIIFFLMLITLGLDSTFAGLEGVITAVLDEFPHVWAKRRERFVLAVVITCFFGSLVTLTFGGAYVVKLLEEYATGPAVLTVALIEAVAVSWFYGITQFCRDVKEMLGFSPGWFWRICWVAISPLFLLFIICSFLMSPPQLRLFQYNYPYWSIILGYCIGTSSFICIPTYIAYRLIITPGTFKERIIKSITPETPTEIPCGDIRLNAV
5-hydroxytryptamine receptor 2C, sequence (P28335 whole entry): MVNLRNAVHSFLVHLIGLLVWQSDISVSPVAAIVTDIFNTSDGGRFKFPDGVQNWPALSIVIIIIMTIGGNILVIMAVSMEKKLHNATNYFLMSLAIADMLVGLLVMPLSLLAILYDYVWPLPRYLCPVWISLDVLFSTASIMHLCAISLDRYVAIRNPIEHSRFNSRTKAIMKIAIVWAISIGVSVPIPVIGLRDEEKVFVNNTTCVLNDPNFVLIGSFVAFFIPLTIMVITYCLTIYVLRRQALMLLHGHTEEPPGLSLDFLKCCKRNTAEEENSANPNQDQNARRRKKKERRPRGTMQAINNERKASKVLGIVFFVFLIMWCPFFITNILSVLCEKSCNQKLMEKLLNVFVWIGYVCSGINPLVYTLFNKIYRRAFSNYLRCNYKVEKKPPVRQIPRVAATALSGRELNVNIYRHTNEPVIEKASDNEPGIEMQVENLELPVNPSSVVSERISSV
Melanocortin receptor 4, sequence (P32245 whole entry): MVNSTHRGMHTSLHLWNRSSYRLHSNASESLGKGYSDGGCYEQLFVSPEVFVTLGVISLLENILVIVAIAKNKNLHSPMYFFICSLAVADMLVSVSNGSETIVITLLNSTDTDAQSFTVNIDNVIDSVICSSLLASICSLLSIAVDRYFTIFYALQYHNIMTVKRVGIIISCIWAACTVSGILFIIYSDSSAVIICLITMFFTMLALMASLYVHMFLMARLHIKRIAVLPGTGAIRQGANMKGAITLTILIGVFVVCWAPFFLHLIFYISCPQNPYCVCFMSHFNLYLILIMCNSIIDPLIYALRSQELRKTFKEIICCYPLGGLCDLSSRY
Prostaglandin G/H synthase 2, sequence (P35354 whole entry): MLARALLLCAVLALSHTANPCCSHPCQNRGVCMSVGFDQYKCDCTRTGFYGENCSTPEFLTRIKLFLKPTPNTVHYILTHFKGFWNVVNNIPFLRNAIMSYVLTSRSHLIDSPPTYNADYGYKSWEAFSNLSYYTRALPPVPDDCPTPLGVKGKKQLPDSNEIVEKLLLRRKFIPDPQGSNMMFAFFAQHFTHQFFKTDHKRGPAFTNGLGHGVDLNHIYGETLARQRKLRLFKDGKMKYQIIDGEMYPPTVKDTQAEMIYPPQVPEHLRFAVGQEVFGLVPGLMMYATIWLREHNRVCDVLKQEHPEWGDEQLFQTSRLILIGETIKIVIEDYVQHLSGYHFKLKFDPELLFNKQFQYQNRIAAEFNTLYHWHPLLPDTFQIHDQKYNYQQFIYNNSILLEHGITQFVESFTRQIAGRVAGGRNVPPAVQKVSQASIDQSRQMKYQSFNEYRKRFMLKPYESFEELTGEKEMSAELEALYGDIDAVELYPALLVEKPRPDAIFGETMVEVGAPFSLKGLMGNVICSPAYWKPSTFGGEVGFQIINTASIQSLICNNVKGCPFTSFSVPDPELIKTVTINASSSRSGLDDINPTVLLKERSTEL
Glucagon receptor, sequence (P47871 whole entry): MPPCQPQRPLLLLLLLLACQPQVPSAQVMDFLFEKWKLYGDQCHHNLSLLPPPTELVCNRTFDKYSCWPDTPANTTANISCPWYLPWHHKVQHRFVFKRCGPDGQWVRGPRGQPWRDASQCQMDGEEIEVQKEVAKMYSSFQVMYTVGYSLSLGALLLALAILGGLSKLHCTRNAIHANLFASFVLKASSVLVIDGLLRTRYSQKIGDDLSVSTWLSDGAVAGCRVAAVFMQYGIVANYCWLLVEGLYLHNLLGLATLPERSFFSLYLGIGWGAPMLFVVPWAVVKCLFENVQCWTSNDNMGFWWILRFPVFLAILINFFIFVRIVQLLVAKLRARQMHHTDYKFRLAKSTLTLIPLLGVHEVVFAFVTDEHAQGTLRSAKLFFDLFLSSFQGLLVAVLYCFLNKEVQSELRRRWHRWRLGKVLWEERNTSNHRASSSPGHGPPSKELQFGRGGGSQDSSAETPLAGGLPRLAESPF
Estrogen receptor, sequence (P03372 whole entry): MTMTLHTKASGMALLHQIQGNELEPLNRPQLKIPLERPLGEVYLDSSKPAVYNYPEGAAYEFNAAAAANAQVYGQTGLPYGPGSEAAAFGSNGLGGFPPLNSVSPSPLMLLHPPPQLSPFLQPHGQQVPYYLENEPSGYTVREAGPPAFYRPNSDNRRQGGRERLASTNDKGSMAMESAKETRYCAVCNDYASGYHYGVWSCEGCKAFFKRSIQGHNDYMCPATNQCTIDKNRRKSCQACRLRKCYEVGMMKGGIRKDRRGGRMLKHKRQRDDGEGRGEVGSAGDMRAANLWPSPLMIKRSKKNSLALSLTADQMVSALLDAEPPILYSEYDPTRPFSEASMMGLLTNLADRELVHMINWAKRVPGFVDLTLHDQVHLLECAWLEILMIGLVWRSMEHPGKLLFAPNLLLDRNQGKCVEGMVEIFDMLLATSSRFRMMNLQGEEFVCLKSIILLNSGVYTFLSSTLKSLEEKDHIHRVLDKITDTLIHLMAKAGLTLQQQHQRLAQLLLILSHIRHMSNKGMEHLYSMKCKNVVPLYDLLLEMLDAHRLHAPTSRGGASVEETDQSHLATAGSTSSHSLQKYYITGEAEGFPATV
Motilin receptor, sequence (O43193 whole entry): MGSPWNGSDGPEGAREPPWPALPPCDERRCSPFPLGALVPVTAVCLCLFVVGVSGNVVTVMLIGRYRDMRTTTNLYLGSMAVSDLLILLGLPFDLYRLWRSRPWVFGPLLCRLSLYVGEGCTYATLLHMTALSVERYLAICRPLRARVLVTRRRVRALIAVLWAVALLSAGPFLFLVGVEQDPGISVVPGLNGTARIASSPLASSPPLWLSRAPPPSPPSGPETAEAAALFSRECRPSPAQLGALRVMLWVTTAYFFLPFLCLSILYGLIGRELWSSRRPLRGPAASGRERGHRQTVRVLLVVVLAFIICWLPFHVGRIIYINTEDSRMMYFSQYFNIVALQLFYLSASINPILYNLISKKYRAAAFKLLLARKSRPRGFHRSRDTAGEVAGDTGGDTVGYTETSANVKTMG
Alpha-1A adrenergic receptor, sequence (P35348 whole entry): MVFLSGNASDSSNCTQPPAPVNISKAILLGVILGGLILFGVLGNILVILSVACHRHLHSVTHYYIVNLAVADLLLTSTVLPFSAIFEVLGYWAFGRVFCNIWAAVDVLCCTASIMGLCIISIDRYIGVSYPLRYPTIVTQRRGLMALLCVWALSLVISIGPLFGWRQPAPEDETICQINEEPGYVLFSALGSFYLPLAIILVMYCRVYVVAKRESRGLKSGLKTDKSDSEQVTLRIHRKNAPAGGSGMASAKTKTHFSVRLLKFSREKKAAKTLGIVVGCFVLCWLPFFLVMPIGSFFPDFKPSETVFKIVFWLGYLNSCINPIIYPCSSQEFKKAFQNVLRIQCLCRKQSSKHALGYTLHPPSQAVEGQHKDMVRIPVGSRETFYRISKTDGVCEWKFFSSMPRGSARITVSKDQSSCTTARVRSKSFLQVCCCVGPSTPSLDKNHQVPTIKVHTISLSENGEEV
5-hydroxytryptamine receptor 3A, sequence (P46098 whole entry): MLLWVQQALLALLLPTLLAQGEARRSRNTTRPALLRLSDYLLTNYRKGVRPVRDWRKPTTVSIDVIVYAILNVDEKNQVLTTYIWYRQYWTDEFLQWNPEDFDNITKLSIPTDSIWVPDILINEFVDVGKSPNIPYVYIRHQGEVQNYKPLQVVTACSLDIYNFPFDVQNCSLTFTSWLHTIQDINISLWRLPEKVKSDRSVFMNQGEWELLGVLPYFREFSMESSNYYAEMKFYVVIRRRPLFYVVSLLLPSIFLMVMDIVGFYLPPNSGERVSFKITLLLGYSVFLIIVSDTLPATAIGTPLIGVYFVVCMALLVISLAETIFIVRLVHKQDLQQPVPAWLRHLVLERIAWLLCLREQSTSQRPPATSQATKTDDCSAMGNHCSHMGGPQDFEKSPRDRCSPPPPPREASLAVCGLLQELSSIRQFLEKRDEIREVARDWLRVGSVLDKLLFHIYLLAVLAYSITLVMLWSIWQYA
Melanocortin receptor 3, sequence (P41968 whole entry): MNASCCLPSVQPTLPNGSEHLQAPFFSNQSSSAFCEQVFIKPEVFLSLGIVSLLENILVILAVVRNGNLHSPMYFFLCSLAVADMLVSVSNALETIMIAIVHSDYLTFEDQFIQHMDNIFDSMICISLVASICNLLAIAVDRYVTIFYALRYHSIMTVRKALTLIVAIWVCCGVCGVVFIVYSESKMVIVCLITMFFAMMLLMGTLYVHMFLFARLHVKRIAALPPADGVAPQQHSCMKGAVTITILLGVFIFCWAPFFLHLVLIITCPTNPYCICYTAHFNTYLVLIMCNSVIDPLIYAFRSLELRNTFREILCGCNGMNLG

C[C@H]1Cc2c([nH]c3cc(Cl)c(F)cc23)[C@@]2(N1)C(=O)Nc1ccc(Cl)cc12 [CIPARGAMIN]
IC50 [1]: 0.0005 µM | inhibition (INH) [2]: 50% | Survival [3]: >30 days | IC50 [4]: 0.0012 µM | IC50 [5]: > 30 µM | IC50 [6]: 0.0007 µM | Activity [7]: 50% | half-life [8]: 3.44 h | Tmax [9]: 8 h | inhibition at 0.0016 µM [10]: > 90% | inhibition [11]: Active | IC50 [12]: > 10 µM | CLint scaled [13]: 8.67 mL/min/kg | mean survival time at 10 mg/kg [14]: 13.3 days | IC50 [15]: 0.0041 µM | IC50 [16]: > 10 µM | IC50 [17]: > 10 µM | IC50 [18]: > 30 µM | Vd [19]: 3.04 L/kg | IC50 [20]: > 10 µM | inhibition at 30 µM [21]: 44.9% | IC50 [22]: > 30 µM | IC50 [23]: 0.00425 µM | Survival [24]: 30 days | Survival [25]: 29.1 days | CLint scaled [26]: 49.7 mL/min/kg | IC50 [27]: 0.00044 µM | Activity [28]: […] | CLint scaled [29]: 6.05 mL/min/kg | inhibition (INH) [30]: 50% | IC50 [31]: > 10 µM | IC50 [32]: > 10 µM | IC50 [33]: 30.4 µM | IC50 [34]: > 10 µM | IC50 [35]: > 30 µM | IC50 [36]: > 10 µM | CLint scaled [37]: 5.8 mL/min/kg | IC50 [38]: > 30 µM | IC50 [39]: > 30 µM | Activity [40]: 100% | IC50 [41]: > 10 µM | bioavailability [42]: 100% | IC50 [43]: > 10 µM | IC50 [44]: > 10 µM | IC50 [45]: > 10 µM | IC50 [46]: > 30 µM | IC50 [47]: > 10 µM | IC50 [48]: > 30 µM | half-life [49]: 10.7 h
